What all share (format): functional
The target of assay [1] is Protein kinase C theta type (Homo sapiens, UniProt Q04759). The experiment in a line: Navigating the Kinome. Panel member name: PRKCQ.
Assay [2] deals with Ribosomal protein S6 kinase alpha-3 (Homo sapiens, UniProt P51812).
Assay [3] deals with Tyrosine-protein kinase JAK2 (Homo sapiens, UniProt O60674).
In assay [4] the target is 5'-AMP-activated protein kinase catalytic subunit alpha-1 (Homo sapiens, UniProt Q13131).
The target of assay [5] is Proto-oncogene tyrosine-protein kinase receptor Ret (Homo sapiens, UniProt P07949).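 Further: measured within a kinome-wide profiling panel, RET as the panel member.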
Assay [6] concerns the target Tyrosine-protein kinase receptor TYRO3 (Homo sapiens, UniProt Q06418).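 Further: TYRO3 value obtained as one member of a kinome-wide profiling panel.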
The target in assay [7] is Death-associated protein kinase 3 (Homo sapiens, UniProt O43293).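 Further: measured as one member of a kinome-wide profiling panel.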
The target of assay [8] is Mitogen-activated protein kinase 8 (Homo sapiens, UniProt P45983).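 Further: value comes from one member of a kinome-wide kinase profiling panel.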
Assay [9] has as its target Serine/threonine-protein kinase pim-1 (Homo sapiens, UniProt P11309).
Another assay has as its target T1, Aurora kinase A (Homo sapiens, UniProt O14965).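 Further: value from the Navigating the Kinome kinase panel profiling, panel entry STK6.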
T1 sequence (O14965 whole entry): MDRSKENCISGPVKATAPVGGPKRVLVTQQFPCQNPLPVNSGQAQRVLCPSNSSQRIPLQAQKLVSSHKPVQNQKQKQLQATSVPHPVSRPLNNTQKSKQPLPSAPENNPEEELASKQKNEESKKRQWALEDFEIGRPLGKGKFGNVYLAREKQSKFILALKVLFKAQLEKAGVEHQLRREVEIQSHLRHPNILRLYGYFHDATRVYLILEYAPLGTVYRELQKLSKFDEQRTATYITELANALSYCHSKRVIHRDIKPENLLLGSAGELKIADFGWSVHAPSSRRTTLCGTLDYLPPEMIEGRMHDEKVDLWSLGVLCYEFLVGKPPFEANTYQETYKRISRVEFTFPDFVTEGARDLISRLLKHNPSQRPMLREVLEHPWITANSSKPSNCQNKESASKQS

The target of the next assay is LIM domain kinase 1 (Homo sapiens, UniProt P53667). The experiment in a line: Navigating the Kinome. Panel member name: LIMK1.
The target of assay [10] is High affinity nerve growth factor receptor (Homo sapiens, UniProt P04629).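 Further: NTRK1 tested as one member of a kinome-wide profiling panel.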
For assay [11], the target named is Glycogen synthase kinase-3 alpha (Homo sapiens, UniProt P49840).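 Further: GSK3A result taken from a broad kinome-wide kinase panel.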
In assay [12] the target is Mitogen-activated protein kinase kinase kinase kinase 2 (Homo sapiens, UniProt Q12851).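 Further: measured as one member of a kinome-wide kinase panel, with MAP4K2 as the panel entry.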
Assay [13] addresses Hepatocyte growth factor receptor (Homo sapiens, UniProt P08581).
In assay [14] the target is Platelet-derived growth factor receptor beta (Homo sapiens, UniProt P09619).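 Further: value comes from a kinome panel, with PDGFRB tested as one panel member.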
Assay [15] deals with Receptor-type tyrosine-protein kinase FLT3 (Homo sapiens, UniProt P36888).
In assay [16] the target is Serine/threonine-protein kinase Chk1 (Homo sapiens, UniProt O14757).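 Further: measured as one member of a kinome-wide kinase profiling panel.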
The target of assay [17] is Tyrosine-protein kinase ABL1 (Homo sapiens, UniProt P00519).
Assay [18] concerns the target Vascular endothelial growth factor receptor 2 (Homo sapiens, UniProt P35968).
Assay [19] has as its target Dual specificity tyrosine-phosphorylation-regulated kinase 1B (Homo sapiens, UniProt Q9Y463). The experiment in a line: Navigating the Kinome. Panel member name: DYRK1B.
The target of assay [20] is Cyclin-dependent kinase 19 (Homo sapiens, UniProt Q9BWU1). Kind of assay: Navigating the Kinome. Panel member name: CDC2L6.
Assay [21] concerns the target Glycogen synthase kinase-3 beta (Homo sapiens, UniProt P49841).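 Further: value comes from a broad kinome profiling panel, with GSK3B as the panel member.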
Assay [22] deals with Cyclin-dependent kinase 9 (Homo sapiens, UniProt P50750).
The target in assay [23] is BDNF/NT-3 growth factors receptor (Homo sapiens, UniProt Q16620).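 Further: NTRK2 measured as one member of a broad kinome-wide kinase profiling panel.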
In assay [24] the target is cAMP-dependent protein kinase catalytic subunit alpha (Homo sapiens, UniProt P17612).
In assay [25] the target is Dual specificity protein kinase CLK4 (Homo sapiens, UniProt Q9HAZ1).
The target of assay [26] is Macrophage colony-stimulating factor 1 receptor (Homo sapiens, UniProt P07333).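 Further: value comes from the Navigating the Kinome screening panel, CSF1R member.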
In assay [27] the target is Dual specificity mitogen-activated protein kinase kinase 2 (Homo sapiens, UniProt P36507). The experiment in a line: Navigating the Kinome. Panel member name: MAP2K2.
Assay [28] addresses Dual specificity tyrosine-phosphorylation-regulated kinase 1A (Homo sapiens, UniProt Q13627).
The target in assay [29] is Calcium/calmodulin-dependent protein kinase type II subunit alpha (Homo sapiens, UniProt Q9UQM7). The experiment in a line: Navigating the Kinome. Panel member name: CAMK2A.
Assay [30] has as its target T2, High affinity choline transporter 1 (Homo sapiens, UniProt Q9GZV3).
T2 sequence (Q9GZV3 whole entry): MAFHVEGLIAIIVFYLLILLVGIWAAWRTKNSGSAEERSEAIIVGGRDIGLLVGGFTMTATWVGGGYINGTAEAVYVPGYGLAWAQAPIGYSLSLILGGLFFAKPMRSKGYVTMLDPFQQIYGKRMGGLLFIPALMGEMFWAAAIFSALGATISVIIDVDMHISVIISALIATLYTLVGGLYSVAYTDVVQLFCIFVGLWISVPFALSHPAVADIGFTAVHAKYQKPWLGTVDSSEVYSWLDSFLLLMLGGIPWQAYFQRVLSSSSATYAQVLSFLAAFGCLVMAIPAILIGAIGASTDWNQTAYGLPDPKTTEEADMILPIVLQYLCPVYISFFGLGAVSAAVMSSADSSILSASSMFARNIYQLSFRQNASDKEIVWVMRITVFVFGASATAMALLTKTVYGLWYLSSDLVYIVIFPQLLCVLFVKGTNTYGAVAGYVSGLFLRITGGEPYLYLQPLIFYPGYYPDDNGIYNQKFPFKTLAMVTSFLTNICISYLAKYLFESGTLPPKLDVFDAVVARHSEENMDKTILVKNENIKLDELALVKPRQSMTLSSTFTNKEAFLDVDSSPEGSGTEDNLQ
The experiment in a line: human choline transporter blockers, potency – cell-based, 5-point CRC, membrane potential dye, dose response (AID 504840).

The target of assay [31] is T2, High affinity choline transporter 1. Kind of assay: human choline transporter blockers, potency – cell-based, 10-point CRC, membrane potential dye, dose response (AID 588401).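 Further: membrane potential dye fluorescence of choline-evoked depolarization via CHT.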

SMILES strings stand for the structures. The source made the active and inactive calls. Where only a bound is given, the exact number is not on record here.

Mitogen-activated protein kinase kinase kinase kinase 2, sequence (Q12851 whole entry): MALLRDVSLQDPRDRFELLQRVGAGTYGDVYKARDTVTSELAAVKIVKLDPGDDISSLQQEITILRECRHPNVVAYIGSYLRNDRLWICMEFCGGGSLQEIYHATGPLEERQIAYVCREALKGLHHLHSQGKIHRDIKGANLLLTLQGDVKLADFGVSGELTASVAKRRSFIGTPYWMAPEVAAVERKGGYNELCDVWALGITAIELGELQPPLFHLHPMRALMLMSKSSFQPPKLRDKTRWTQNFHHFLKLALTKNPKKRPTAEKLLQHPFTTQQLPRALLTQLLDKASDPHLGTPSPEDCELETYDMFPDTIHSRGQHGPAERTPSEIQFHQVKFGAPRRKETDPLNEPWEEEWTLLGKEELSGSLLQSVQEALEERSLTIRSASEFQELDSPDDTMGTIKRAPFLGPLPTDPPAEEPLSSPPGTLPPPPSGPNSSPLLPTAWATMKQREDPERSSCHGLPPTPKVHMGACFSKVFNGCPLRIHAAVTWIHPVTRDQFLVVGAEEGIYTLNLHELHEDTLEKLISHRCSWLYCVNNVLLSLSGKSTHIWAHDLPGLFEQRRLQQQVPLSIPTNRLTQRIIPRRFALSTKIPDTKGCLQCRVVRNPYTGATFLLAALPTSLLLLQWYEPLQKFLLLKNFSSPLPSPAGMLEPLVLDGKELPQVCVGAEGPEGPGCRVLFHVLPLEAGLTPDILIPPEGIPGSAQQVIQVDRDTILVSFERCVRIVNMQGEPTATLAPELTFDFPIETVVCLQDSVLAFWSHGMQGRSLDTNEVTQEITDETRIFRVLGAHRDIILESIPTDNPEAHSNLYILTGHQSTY
5'-AMP-activated protein kinase catalytic subunit alpha-1, sequence (Q13131 whole entry): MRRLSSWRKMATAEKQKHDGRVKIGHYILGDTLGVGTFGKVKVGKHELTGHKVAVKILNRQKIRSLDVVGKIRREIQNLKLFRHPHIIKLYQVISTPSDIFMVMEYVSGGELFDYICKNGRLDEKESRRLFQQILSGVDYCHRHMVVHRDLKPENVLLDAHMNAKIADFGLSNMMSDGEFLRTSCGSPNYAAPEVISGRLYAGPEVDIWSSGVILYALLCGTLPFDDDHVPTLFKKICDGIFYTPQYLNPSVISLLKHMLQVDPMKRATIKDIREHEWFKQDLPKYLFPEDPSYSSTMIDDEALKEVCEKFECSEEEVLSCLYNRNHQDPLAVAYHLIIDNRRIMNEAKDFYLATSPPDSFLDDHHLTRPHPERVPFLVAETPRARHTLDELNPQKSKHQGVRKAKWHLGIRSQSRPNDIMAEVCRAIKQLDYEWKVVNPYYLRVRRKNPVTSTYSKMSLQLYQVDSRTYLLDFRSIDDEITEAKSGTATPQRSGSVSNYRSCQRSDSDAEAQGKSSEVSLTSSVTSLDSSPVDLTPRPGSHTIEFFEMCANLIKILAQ
Cyclin-dependent kinase 9, sequence (P50750 whole entry): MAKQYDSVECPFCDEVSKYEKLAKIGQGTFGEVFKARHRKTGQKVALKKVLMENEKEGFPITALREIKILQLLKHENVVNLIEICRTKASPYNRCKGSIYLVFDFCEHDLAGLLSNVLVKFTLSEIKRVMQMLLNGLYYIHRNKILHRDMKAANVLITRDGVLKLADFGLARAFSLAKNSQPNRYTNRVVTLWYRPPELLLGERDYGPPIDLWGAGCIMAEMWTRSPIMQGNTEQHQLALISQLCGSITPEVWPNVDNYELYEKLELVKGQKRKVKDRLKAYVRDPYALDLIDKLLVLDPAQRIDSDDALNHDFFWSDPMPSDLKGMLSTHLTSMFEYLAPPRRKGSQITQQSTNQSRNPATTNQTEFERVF
Dual specificity protein kinase CLK4, sequence (Q9HAZ1 whole entry): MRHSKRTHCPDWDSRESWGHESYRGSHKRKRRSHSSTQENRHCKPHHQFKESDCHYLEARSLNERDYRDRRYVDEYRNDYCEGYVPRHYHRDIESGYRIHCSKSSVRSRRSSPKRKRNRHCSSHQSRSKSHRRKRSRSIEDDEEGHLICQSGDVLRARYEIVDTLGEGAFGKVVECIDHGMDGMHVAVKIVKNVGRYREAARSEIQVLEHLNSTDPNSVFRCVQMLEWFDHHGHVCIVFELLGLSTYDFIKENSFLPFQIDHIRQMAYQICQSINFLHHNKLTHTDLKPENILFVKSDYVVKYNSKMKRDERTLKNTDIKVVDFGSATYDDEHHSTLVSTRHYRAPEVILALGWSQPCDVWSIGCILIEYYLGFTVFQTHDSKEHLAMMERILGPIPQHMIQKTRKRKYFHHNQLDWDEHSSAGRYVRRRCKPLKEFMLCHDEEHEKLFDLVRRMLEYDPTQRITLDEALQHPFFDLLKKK
LIM domain kinase 1, sequence (P53667 whole entry, the tested form may be a part): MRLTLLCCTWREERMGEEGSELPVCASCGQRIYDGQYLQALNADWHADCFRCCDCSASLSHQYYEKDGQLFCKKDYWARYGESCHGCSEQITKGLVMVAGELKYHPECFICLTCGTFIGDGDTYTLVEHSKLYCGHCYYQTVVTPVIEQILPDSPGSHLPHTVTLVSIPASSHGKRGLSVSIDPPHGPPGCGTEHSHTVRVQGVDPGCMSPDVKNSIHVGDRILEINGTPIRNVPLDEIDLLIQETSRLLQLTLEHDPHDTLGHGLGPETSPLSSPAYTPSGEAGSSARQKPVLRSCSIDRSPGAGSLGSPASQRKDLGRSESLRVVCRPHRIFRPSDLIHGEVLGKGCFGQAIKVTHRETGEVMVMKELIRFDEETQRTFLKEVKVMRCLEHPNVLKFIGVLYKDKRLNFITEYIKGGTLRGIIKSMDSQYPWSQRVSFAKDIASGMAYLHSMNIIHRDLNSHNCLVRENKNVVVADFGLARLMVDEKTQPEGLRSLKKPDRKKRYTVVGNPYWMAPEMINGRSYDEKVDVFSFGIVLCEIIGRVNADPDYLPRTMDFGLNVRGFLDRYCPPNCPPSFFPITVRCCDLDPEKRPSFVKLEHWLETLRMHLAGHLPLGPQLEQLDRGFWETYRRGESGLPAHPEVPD
Platelet-derived growth factor receptor beta, sequence (P09619 whole entry): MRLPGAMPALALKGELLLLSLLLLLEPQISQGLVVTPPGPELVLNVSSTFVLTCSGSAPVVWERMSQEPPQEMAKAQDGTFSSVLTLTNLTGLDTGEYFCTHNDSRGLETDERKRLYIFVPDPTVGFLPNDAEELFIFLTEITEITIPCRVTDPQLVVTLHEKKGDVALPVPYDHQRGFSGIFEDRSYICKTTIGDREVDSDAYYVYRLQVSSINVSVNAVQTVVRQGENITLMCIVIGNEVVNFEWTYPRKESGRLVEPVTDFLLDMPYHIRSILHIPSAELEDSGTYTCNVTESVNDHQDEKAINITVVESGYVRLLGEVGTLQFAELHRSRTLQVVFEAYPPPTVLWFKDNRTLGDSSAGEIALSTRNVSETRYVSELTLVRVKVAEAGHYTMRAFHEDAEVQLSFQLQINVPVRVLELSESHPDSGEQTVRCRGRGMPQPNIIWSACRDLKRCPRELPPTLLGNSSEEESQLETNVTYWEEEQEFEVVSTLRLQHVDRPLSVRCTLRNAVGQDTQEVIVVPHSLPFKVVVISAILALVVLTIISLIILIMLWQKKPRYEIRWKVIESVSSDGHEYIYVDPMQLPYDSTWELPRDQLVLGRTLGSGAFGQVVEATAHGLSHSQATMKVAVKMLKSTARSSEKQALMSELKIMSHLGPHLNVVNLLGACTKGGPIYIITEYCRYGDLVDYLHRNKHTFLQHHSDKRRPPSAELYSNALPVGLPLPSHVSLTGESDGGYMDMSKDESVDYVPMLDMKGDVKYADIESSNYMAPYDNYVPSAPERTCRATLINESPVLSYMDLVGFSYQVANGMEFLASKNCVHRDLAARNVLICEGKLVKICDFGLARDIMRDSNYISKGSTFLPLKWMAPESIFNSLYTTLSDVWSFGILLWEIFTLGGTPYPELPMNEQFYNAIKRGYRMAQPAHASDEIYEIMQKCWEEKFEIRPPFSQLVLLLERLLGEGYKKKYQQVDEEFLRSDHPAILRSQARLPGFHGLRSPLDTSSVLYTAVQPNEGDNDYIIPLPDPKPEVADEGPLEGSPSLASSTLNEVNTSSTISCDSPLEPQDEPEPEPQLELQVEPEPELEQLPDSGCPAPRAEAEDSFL
High affinity nerve growth factor receptor, sequence (P04629 whole entry): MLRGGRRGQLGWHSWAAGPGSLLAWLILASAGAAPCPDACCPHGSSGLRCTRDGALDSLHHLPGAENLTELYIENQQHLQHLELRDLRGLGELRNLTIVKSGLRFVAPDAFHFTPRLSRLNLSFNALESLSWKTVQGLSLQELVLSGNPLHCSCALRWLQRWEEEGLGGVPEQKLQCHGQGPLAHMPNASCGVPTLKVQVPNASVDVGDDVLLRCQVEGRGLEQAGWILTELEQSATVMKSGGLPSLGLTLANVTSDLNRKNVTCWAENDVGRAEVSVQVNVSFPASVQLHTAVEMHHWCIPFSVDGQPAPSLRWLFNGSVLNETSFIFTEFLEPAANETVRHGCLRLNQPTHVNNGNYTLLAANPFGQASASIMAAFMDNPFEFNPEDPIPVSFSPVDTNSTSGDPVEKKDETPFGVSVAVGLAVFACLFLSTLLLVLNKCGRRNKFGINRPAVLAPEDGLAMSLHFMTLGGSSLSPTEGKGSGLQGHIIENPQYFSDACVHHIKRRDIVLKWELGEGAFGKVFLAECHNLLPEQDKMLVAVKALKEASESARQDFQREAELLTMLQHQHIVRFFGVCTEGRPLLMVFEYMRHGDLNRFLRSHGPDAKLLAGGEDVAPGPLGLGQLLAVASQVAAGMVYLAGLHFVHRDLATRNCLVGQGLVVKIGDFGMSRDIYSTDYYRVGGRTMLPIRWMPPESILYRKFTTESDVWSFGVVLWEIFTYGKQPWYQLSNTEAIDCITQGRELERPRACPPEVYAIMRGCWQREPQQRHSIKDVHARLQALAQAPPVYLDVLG

Take `COc1ccc(-c2ccc(N)cc2)c2cnoc12`: the Ki in assay [1] is > 79.4 µM (inactive); in assay [2], 63.1 µM (active); in [3], 79.4 µM (active); in assay [4] it was 79.4 µM (active); in [5], 39.8 µM (active); in assay [6], 100 µM (active). Also, the Ki in [7] was 79.4 µM (active); in assay [8], 50.1 µM (active); in assay [9], 12.6 µM (active); at Aurora kinase A, > 50.1 µM (inactive); on LIM domain kinase 1 it was 3.98 µM (active); in assay [10], 15.8 µM (active). Besides, the Ki in [11] is 100 µM (active); in assay [12] it was 63.1 µM (active); in assay [13], 79.4 µM (active); in assay [14], > 79.4 µM (inactive); in assay [15], 79.4 µM (active); in [16], 3.98 µM (active). Moreover, the Ki in assay [17] was 63.1 µM (active); in assay [18], > 79.4 µM (inactive); in assay [19], 50.1 µM (active); in assay [20], > 100 µM (inactive); in [21] it was 31.6 µM (active); in assay [22] it was > 63.1 µM (inactive). Besides, the inhibition constant Ki is 100 µM (active) in assay [23]; > 50.1 µM (inactive) in assay [24]; 7.94 µM (active) in assay [25]; > 100 µM (inactive) in assay [26]; 100 µM (active) in assay [27]; > 63.1 µM (inactive) in [28]. Besides, the Ki in [29] is 79.4 µM (active).
Take `CC(/C=C1\SC(=S)N(CC(=O)O)C1=O)=C\c1ccccc1`: the IC50 in [30] is 9.45 µM (active); in [31], 6.48 µM (active).

Usually Ki stands for the equilibrium dissociation constant of an inhibitor or competing ligand from its target. The term IC50 denotes the point on the concentration scale where inhibition reaches its midpoint.
